Patent US20250073235A1, “INHIBITION OF MAST CELL TUMOR NECROSIS FACTOR FOR THERAPEUTIC USE” (The University of Southern Mississippi, priority 2023, published 2025)
Entries after “also recorded” stand apart in the source; their conditions may differ.

How the values were obtained:
RBL-2H3 cells [1] = test: β-hexosaminidase secretion assay, IgE/TNP-BSA activated mast cells; type: cell-based, rat; details: for β-hexosaminidase secretion (% of total activity in the supernatant), normalized against DMSO: inhibitor added to sensitized RBL-2H3 cells 30 min before TNP-BSA, FIG. 19
Protocol: (§1) Sub-confluent RBL-2H3 cells (85%) grown on a 6-well plate were sensitized with 0.5 μg/ml anti-TNP IgE (BD Biosciences) and activated by 25 ng/ml TNP^(26)-BSA (Santa-Cruz) in RPMI 1640 (Corning) containing 0.1% BSA as described. The supernatant (around 1 ml) was collected from resting (no exposure to IgE) and activated (IgE and TNP-BSA) cells respectively and centrifuged at 500 g for 5 min at 4° C. to clear any cell debris. In the meantime, the cells attached to the bottom of the 6-well plates were lysed in 1 ml of cell culture medium, RPMI 1640 containing 0.1% BSA and 0.5% Triton X-100 for 5 min at RT. The lysate was centrifuged at 15,000 g for 5 min at 4° C. to clear any Triton-insoluble biomass. The cleared supernatant or lysate was separated into 3 aliquots: 800 μl were lyophilized for TNF assay; 50 μl were stored at −20° C. for serotonin and histamine assays; and the rest was used immediately for β-hexosaminidase assay.
(§2) β-hexosaminidase activity and TNF protein level were measured as commonly used in the art. To quantify histamine with an Enzyme Immunoassay (EIA) kit (EA213/96; Eagle Biosciences), the supernatant and cell lysates were diluted 100-fold in RPMI. Fifty μl of the diluted samples were then subject to acylation reaction and ELISA by following the manufacturer's instructions. To measure the level of serotonin, the supernatant and cell lysates were diluted 1:625 fold with standard buffer (EA630/96; Eagle Biosciences), 20 μl of which were subject to acylation and subsequent ELISA according to the manufacturer's instructions.
(§3) The absolute value for the exocytosis of each mediator (V) was expressed as the percentage of the signal released into the supernatant (MS) relative to the total signal in the supernatant and in the lysate [V=MS/(MS+ML)%]. The value for IgE/allergen-dependent exocytosis was calculated by subtracting the value of the activated samples with the value of the resting samples (VE=VA−VR).
(§4) RBL-2H3 cells and derivatives growing in 6-well plates were sensitized for 3 h with 0.5 μg/mL mouse anti-TNP ([…]) IgE (BD Pharmingen) and stimulated with 25 ng/mL of TNP(26)-BSA (Santa Cruz). β-hexosaminidase activities and TNF levels in the supernatant and the cell lysates were quantified as previously described. […]. Reverse transcription and PCRs RBL-2H3 cells (˜40% confluent) cultured in a 24-well plate were treated with 250 μL of 0.25% Trypsin-EDTA (Gibco) that was subsequently neutralized with 750 μL of complete medium. About […] were collected for RT-qPCR (quantitative PCR) using TaqMan Gene Expression Cells-to-CT Kit (ThermoFisher Scientific) according to the manufacturer's instructions. […]

RBL-2H3 cells [2] = test: total TNF protein level (ELISA), IgE/TNP-BSA activated mast cells; type: cell-based, rat; details: for overall level of TNF (total TNF protein): 1 hour; for total TNF level, normalized against DMSO: FIG. 19
Protocol: as §1, §2
RBL-2H3 cells and derivatives growing in 6-well plates were sensitized for 3 h with 0.5 μg/mL mouse anti-TNP ([…]) IgE (BD Pharmingen) and stimulated with 25 ng/mL of TNP(26)-BSA (Santa Cruz). β-hexosaminidase activities and TNF levels in the supernatant and the cell lysates were quantified as previously described. […]. Reverse transcription and PCRs RBL-2H3 cells (˜40% confluent) cultured in a 24-well plate were treated with 250 μL of 0.25% Trypsin-EDTA (Gibco) that was subsequently neutralized with 750 μL of complete medium. About […] were collected for RT-qPCR (quantitative PCR) using TaqMan Gene Expression Cells-to-CT Kit (ThermoFisher Scientific) according to the manufacturer's instructions. Fluorescently labeled, target-specific probes ((3-actin: Rn00667869_ml; TNFR1: Rn01492348_ml; and TNFR2: Rn00709830_ml) were purchased from Thermofisher Scientific. The Cq values of TNFRs were standardized against that of β-actin utilizing the Bio-Rad CFX Maestro software and then the relative levels of mRNA expression were determined. For electrophoresis, TNFR1 was amplified from cDNA (prepared with the same TaqMan Gene Expression Cells-to-CT Kit described earlier) using […]-3′ (SEQ ID NO: 11) and 5′-[…]-3′ (SEQ ID NO: 12) as forward and reverse primers, whereas TNFR2 was amplified using 5′-[…]-3′ (SEQ ID NO: 13) and 5′-[…]-3′ (SEQ ID NO: 14) as forward and reverse primers. PCR was conducted in a 20 μL mixture containing 1× One Taq Master Mix (NEB) and 200 nM of primers. Where specified, 1 μL of rat universal cDNA (BioChain) was used as positive control.

RBL-2H3 cells [3] = test: TNF secretion assay (ELISA), IgE/TNP-BSA activated mast cells; type: cell-based, rat; details: for TNF secretion (% of total TNF in the supernatant), normalized against DMSO: inhibitor added to sensitized RBL-2H3 cells 30 min before TNP-BSA, FIG. 19
Protocol: as §1, §2, §3, §4

activated mast cells [4] = details: reference [31]; cited from earlier work
activated mast cells [5] = details: reference [31]; cited from earlier work; remark: listed apart in the source
[6] = inhibitor added to sensitized RBL-2H3 cells 30 min before TNP-BSA

Row | Molecule | β-hexosaminidase secretion (% of total activity in the supernatant), normalized against DMSO (RBL-2H3 cells [1]) | total TNF level, normalized against DMSO (RBL-2H3 cells [2]; [6]) | TNF secretion (% of total TNF in the supernatant), normalized against DMSO (RBL-2H3 cells [3]) | other results
1 | CC#CCOc1ccc(S(=O)(=O)CC(c2ccc(CNS(C)(=O)=O)cc2)N(O)C=O)cc1 (centres unmarked) [KP-457] | – | – | – | exocytosis of β-hexosaminidase (RBL-2H3 cells [1]; sensitized RBL-2H3 cells, inhibitor added along with TNP-BSA, concentrations between 0.3 M and 10 μM, 1 hour, FIG. 18A): did not seem to affect; overall level of TNF (total TNF protein) (RBL-2H3 cells [2]; allergen-triggered RBL-2H3 cells, inhibitor added along with TNP-BSA, FIG. 18C): inhibited the overall level of TNF; also recorded: TNF production is diminished; amount of sTNF protein released into the supernatant (RBL-2H3 cells [3]; sensitized RBL-2H3 cells, inhibitor added along with TNP-BSA, concentrations between 0.3 M and 10 μM, 1 hour, FIG. 18B): significantly reduced
2 | Cc1ccc(-n2nc(C(C)(C)C)cc2NC(=O)Nc2ccc(OCCN3CCOCC3)c3ccccc23)cc1 [Doramapimod/BIRB 796, Doramapimod] | did not seem to affect exocytosis | did not seem to affect exocytosis or significantly reduce TNF proliferation | did not seem to affect exocytosis | –
3 | Cn1nccc1Nc1nccc(-c2ccn([C@H](CO)c3ccc(Cl)c(F)c3)c(=O)c2)n1 [Ravoxertinib/GDC-0994, Ravoxertinib] | inhibited | inhibited | inhibited | –
4 | Cc1cc(NC(=O)c2cccc(NC(=O)/C=C/CN(C)C)c2)ccc1Nc1nccc(-c2cccnc2)n1 [JNK-IN-8] | without impacting | diminished TNF level drastically | without impacting | –
5 | CN(C)CCC=C1c2ccccc2CCc2ccccc21 [amitriptyline] | – | – | – | histamine release (activated mast cells [4]): specifically inhibit; serotonin release (activated mast cells [5]): without any influence
6 | CCOc1cc(C(=O)N2CCC(N3CCN(C)CC3)CC2)ccc1Nc1ncc2c(n1)N(S(C)(=O)=O)c1ccccc1C(=O)N2C [AX-15836] | – | – | – | reduction in total TNF level (RBL-2H3 cells [2]; inhibitor added to sensitized RBL-2H3 cells 30 min before TNP-BSA, statistically significant, FIG. 19B): 10%
7 | sTNFR1: soluble TNF receptor 1 (Genscript), sequesters secreted TNF (protein, UniProt P19438 30-211, looked up, extracellular domain) extracellular domain: LVPHLGDREKRDSVCPQGKYIHPQNNSICCTKCHKGTYLYNDCPGPGQDTDCRECESGSFTASENHLRHCLSCSKCRKEMGQVEISSCTVDRDTVCGCRKNQYRHYWSENLFQCFNCSLCLNGTVHLSCQEKQNTVCTCHAGFFLRENECVSCSNCKKSLECTKLCLPQIENVKGTEDSGTT | – | – | – | overall level of TNF (total TNF protein) (RBL-2H3 cells [2]; sensitized RBL-2H3 cells incubated with sTNFR1 along with TNP-BSA, FIG. 17A): inhibited the overall level of TNF in a concentration dependent fashion; overall level of TNF (total TNF protein) (RBL-2H3 cells [2]; sensitized RBL-2H3 cells incubated with sTNFR1 along with TNP-BSA, FIG. 17A, listed as soluble TNFR1): inhibits antigen-elicited TNF production in a dosage-dependent fashion
